Substitutions are numbered along the chain they refer to.
Experiments:
mutated AR (W741C) = biological target: T1, mutated AR (W741C) (Homo sapiens, UniProt P10275, W742C); assay: AR transcription inhibition test (luciferase reporter in Cos-7); format: cell-based; conditions: 0.1 μM compound, DHT 0.04 μM, 24 hours, luciferase activity, relative to a control
T1 construct: expressed in transfected cells; host or cells: Cos-7
T1 sequence (P10275 1-920 W742C): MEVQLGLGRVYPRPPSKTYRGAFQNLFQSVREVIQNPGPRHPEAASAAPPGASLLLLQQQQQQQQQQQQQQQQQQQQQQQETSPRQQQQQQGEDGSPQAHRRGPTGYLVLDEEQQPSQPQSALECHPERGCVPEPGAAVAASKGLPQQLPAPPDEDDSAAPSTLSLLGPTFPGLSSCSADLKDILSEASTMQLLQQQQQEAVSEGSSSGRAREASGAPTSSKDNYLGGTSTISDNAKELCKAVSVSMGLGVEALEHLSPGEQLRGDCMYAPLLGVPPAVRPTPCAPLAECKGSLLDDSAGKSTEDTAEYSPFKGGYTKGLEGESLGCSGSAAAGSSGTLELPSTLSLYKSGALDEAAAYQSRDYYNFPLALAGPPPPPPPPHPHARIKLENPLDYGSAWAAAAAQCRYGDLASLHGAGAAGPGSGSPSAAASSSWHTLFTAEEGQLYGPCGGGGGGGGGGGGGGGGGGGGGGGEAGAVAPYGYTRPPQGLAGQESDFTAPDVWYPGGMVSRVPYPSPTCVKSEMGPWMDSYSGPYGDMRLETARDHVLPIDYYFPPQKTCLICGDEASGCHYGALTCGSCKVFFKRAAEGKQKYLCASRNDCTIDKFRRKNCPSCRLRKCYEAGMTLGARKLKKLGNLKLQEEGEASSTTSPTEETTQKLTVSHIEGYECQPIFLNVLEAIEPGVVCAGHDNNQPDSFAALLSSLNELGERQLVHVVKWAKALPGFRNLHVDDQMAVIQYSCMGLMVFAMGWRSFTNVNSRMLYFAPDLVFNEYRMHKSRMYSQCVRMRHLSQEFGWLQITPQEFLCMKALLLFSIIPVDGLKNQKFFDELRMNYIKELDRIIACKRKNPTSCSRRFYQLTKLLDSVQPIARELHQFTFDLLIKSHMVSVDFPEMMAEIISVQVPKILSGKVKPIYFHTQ
Protocol: 5,000,000 Cells of Cos-7 was inoculated on a flask, and cultured in a culturing solution (DMEM+10% Dextran Charcoal (DCC)-Fetal Bovine Serum (FBS)+2 mM glutamine) for 24 hours, and a vector DNA in which mutated AR (W741C) had been inserted, and a vector DNA in which a luciferase gene had been connected downstream of an androgen-responsive promoter were transfected by a liposome method. After two hours, the medium was exchanged, the cells were cultured for 3 hours, DHT (dihydrotestosterone) having the final concentration of 0.04 μM and an assessment compound having the final concentration of 0.1 μM were added, and the cells were cultured for 24 hours, and luciferase activity was measured to investigate AR transcription inhibition activity of the assessment compound.

[1] = biological target: T2, wild-type androgen receptor (AR) (Homo sapiens, UniProt P10275); assay: AR binding inhibitory test (wild type); conditions: 1 μM compound, 3 nM miboleron, 4° C. for 3 hours, dextran/charcoal B/F separation; read-out: Inhibitory rate (%) at 1 μM, Wild type
T2 sequence (P10275 1-920): T1 sequence (P10275 1-920 W742C) with C742W
Protocol: 3 nM miboleron and 1 μM of a compound was added to a solution containing a wild-type androgen receptor (AR) or an androgen receptor (AR) having a LNCaP type mutation, this was incubated at 4° C. for 3 hours, and B(Bound)/F(Free) separation was performed by a dextran/charcoal method. A label count of B was measured, and an inhibition rate of the compound was calculated.

mouse prostate = assay: Test of reduction in weight of mouse prostate; format: in vivo; conditions: orally 50 mg/kg/day for 7 days, 8 week old male mouse; drug non-addition 0%, castration 100%
Excerpt: A rate of reduction in a prostate weight is shown in Table 5, letting at drug non-addition to be 0%, and letting at castration to be 100%.

[2] = system: human prostate cancer cell LNCaP-FGC; assay: Prostate specific antigen (PSA) production inhibition in prostate cancer cell; format: cell-based; conditions: 72 h, 1 μM compound, testosterone 1 ng/mL, three days, PSA in culture supernatant by ELISA, testosterone non-added group 100%, testosterone-added group 0%, read-out: PSA production Inhibitory rate (%) at 1 μM
Protocol: A human prostate cancer cell LNCaP-FGC was inoculated on a 96-well plate at 5000 cells/100 μL/well and, on the next day, testosterone having the final concentration of 1 ng/mL and 1 μM of a compound were added. Three days after addition, the PSA concentration in the culture supernatant was measured by ELISA, and a PSA production inhibition rate was calculated, letting the rate of a testosterone non-added group to be 100%, and letting the rate of a testosterone-added group to be 0%.

- AR transcription Inhibitory rate (%) at 0.1 μM (mutated AR (W741C)): 49%
- inhibition at 1 µM [1]: 94%
SMILES: Cc1c(C#N)c(-c2ccc(C#N)cc2)c(C)n1Cc1cnc(Cl)c(CO)c1 [Compound 1, 1-{[6-Chloro-5-(hydroxymethyl)pyridin-3-yl]methyl}-4-(4-cyanophenyl)-2,5-dimethyl-1H-pyrrole-3-carbonitrile]
- Reduction rate (%) of prostate weight (mouse prostate): 74%
- inhibition at 1 µM [2]: 99%
